According to patent US12568969B2, “Pyridine compounds for controlling invertebrate pests” (FMC Corporation, priority 2020, dated 2026):

Tests used:
Assay type in all cases: in vivo
[1] = tested on: corn planthopper (Peregrinus maidis (Ashmead)); experiment: whole plant or invertebrate; conditions: Peregrinus maidis, 144 h, 6 days; for mortality at 50 ppm: sprayed at 50 ppm; for mortality at 250 ppm: sprayed at 250 ppm; for mortality at 10 ppm: sprayed at 10 ppm
Description: (§1) Test compounds were formulated using a solution containing 10% acetone, […] and 300 ppm Activator 909 non-ionic surfactant (Loveland Products, Loveland, Colorado, USA). The formulated compounds were applied in 1 mL of liquid through an atomizer nozzle positioned 1.27 cm (0.5 inches) above the top of each test unit. Test compounds were sprayed at the rates indicated, and each test was replicated three times.
For evaluating control of corn planthopper (Peregrinus maidis (Ashmead)) through contact and/or systemic means, the test unit consisted of a small open container with a 3-4-day-old corn (maize) plant inside. White sand was added to the top of the soil prior to application of the test compound.
Test compounds were formulated and sprayed at 250 and/or 50 ppm and/or 10 ppm. After spraying of the formulated test compound, the test units were allowed to dry for 1 h before they were post-infested with ˜15-20 nymphs (18-to-21-day-old). A black, screened cap was placed on the top of each test unit, and the test units were held for 6 days in a growth chamber at 22-24° C. and 50-70% relative humidity. Each test unit was then visually assessed for insect mortality.

[2] = tested on: green peach aphid (Myzus persicae (Sulzer)); experiment: Test D: control of green peach aphid on radish plant, spray; conditions: Myzus persicae, 144 h, 6 days; for mortality at 250 ppm: sprayed at 250 ppm; for mortality at 50 ppm: sprayed at 50 ppm
Description: as §1
For evaluating control of green peach aphid (Myzus persicae (Sulzer)) through contact and/or systemic means, the test unit consisted of a small open container with a 12-15-day-old radish plant inside. This was pre-infested by placing on a leaf of the test plant 30-40 aphids on a piece of leaf excised from a culture plant (cut-leaf method). The aphids moved onto the test plant as the leaf piece desiccated. After pre-infestation, the soil of the test unit was covered with a layer of sand.
[…] After spraying of the formulated test compound, each test unit was allowed to dry for 1 hour and then a black, screened cap was placed on top. The test units were held for 6 days in a growth chamber at 19-21° C. and 50-70% relative humidity. Each test unit was then visually assessed for insect mortality.

[3] = tested on: cotton melon aphid (Aphis gossypii (Glover)); experiment: whole plant or invertebrate; conditions: Aphis gossypii, 144 h, 6 days; for mortality at 50 ppm: sprayed at 50 ppm; for mortality at 250 ppm: sprayed at 250 ppm
Description: as §1
[…] This was pre-infested with 30-40 insects on a piece of leaf according to the cut-leaf method, and the soil of the test unit was covered with a layer of sand.
Test compounds were formulated and sprayed at 250 and/or 50 ppm. After spraying, the test units were maintained in a growth chamber for 6 days at 19° C. and 70% relative humidity. Each test unit was then visually assessed for insect mortality.

[4] = tested on: sweetpotato whitefly (Bemisia tabaci (Gennadius)); experiment: Test F: control of sweetpotato whitefly on cotton plant, spray; conditions: 312 h, 13 days; for mortality at 50 ppm: sprayed at 50 ppm; for mortality at 250 ppm: sprayed at 250 ppm
Description: as §1
For evaluating control of the sweetpotato whitefly (Bemisia tabaci (Gennadius)) through contact and/or systemic means, the test unit consisted of a small open container with a 12-14-day-old cotton plant inside. Prior to the spray application, both cotyledons were removed from the plant, leaving one true leaf for the assay. Adult whiteflies were allowed to lay eggs on the plant and then were removed from the test unit. Cotton plants infested with at least 15 eggs were submitted to the test for spraying.
Test compounds were formulated and sprayed at 250 and/or 50 ppm. After spraying, the test units were allowed to dry for 1 hour. The cylinders were then removed, and the units were taken to a growth chamber and held for 13 days at 28° C. and 50-70% relative humidity. Each test unit was then visually assessed for insect mortality.

FC(c1ccc(OC(F)(F)F)cc1)c1c(Cl)cncc1-n1cccn1 (stereo not drawn) [Compound 88]
mortality at 50 ppm [1]: ≥ 80%
mortality at 250 ppm [1]: ≥ 80%
mortality at 250 ppm [2]: ≥ 80%
mortality at 50 ppm [3]: ≥ 80%
mortality at 250 ppm [3]: ≥ 80%
mortality at 50 ppm [4]: ≥ 70%
mortality at 250 ppm [4]: ≥ 70%

O=S(=O)(c1ccc(C(F)c2c(Cl)cncc2-n2nccn2)cc1)C(F)(F)F (stereo not drawn) [Compound 91]
mortality at 50 ppm [2]: ≥ 80%
mortality at 250 ppm [2]: ≥ 80%
mortality at 50 ppm [3]: ≥ 80%
mortality at 250 ppm [3]: ≥ 80%
mortality at 50 ppm [4]: ≥ 70%
mortality at 250 ppm [4]: ≥ 70%

FC(c1ccc(OC(F)(F)F)cc1)c1ccncc1-n1cncn1 (stereo not drawn) [Compound 12]
mortality at 50 ppm [1]: ≥ 80%
mortality at 250 ppm [1]: ≥ 80%
mortality at 250 ppm [2]: ≥ 80%
mortality at 50 ppm [3]: ≥ 80%
mortality at 250 ppm [3]: ≥ 80%
mortality at 250 ppm [4]: ≥ 70%

FC(c1ccc(SC(F)(F)F)cc1)c1c(I)cncc1-n1nccn1 (stereo not drawn) [Compound 95]
mortality at 10 ppm [1]: ≥ 80%
mortality at 50 ppm [1]: ≥ 80%
mortality at 250 ppm [1]: ≥ 80%
mortality at 50 ppm [2]: ≥ 80%
mortality at 250 ppm [2]: ≥ 80%
mortality at 50 ppm [3]: ≥ 80%
mortality at 250 ppm [3]: ≥ 80%
mortality at 50 ppm [4]: ≥ 70%
mortality at 250 ppm [4]: ≥ 70%

FC(c1ccc(OC(F)(F)F)cc1)c1c(Cl)cncc1-n1cncn1 (stereo not drawn) [Compound 15]
mortality at 50 ppm [1]: ≥ 80%
mortality at 250 ppm [1]: ≥ 80%
mortality at 50 ppm [2]: ≥ 80%
mortality at 250 ppm [2]: ≥ 80%
mortality at 250 ppm [4]: ≥ 70%

COC(c1ccc(SC(F)(F)F)cc1)c1c(Cl)cncc1-n1nccn1 (stereo not drawn) [Compound 127]
mortality at 10 ppm [1]: ≥ 80%
mortality at 50 ppm [1]: ≥ 80%
mortality at 250 ppm [1]: ≥ 80%
mortality at 50 ppm [2]: ≥ 80%
mortality at 250 ppm [2]: ≥ 80%
mortality at 50 ppm [3]: ≥ 80%
mortality at 250 ppm [3]: ≥ 80%
mortality at 50 ppm [4]: ≥ 70%
mortality at 250 ppm [4]: ≥ 70%

[O-][S+](c1ccc(C(F)c2c(F)cncc2-n2nccn2)cc1)C(F)(F)F (stereo not drawn) [Compound 67, 3-fluoro-4-[fluoro-[4-(trifluoromethylsulfinyl)phenyl]methyl]-5-(triazol-2-yl)pyridine]
mortality at 50 ppm [1]: ≥ 80%
mortality at 250 ppm [1]: ≥ 80%
mortality at 50 ppm [2]: ≥ 80%
mortality at 250 ppm [2]: ≥ 80%
mortality at 50 ppm [3]: ≥ 80%
mortality at 250 ppm [3]: ≥ 80%
mortality at 250 ppm [4]: ≥ 70%

[O-][S+](c1ccc(C(F)c2c(Cl)cncc2-n2nccn2)cc1)C(F)(F)F (stereo not drawn) [Compound 90]
mortality at 50 ppm [1]: ≥ 80%
mortality at 250 ppm [1]: ≥ 80%
mortality at 50 ppm [2]: ≥ 80%
mortality at 250 ppm [2]: ≥ 80%
mortality at 50 ppm [3]: ≥ 80%
mortality at 250 ppm [3]: ≥ 80%
mortality at 50 ppm [4]: ≥ 70%
mortality at 250 ppm [4]: ≥ 70%

FC(c1ccc(OC(F)(F)F)cc1)c1c(Br)cncc1-n1nccn1 (stereo not drawn) [Compound 17]
mortality at 50 ppm [1]: ≥ 80%
mortality at 250 ppm [1]: ≥ 80%
mortality at 50 ppm [2]: ≥ 80%
mortality at 250 ppm [2]: ≥ 80%
mortality at 50 ppm [3]: ≥ 80%
mortality at 250 ppm [3]: ≥ 80%
mortality at 250 ppm [4]: ≥ 70%

FC(c1ccc(Br)cc1)c1c(Cl)cncc1-n1nccn1 (stereo not drawn) [Compound 109]
mortality at 10 ppm [1]: ≥ 80%
mortality at 50 ppm [1]: ≥ 80%
mortality at 250 ppm [1]: ≥ 80%
mortality at 50 ppm [3]: ≥ 80%
mortality at 250 ppm [3]: ≥ 80%
mortality at 50 ppm [4]: ≥ 70%
mortality at 250 ppm [4]: ≥ 70%

COC(c1ccc(SC(F)(F)F)cc1)c1c(F)cncc1-n1cncn1 (stereo not drawn) [Compound 71]
mortality at 50 ppm [2]: ≥ 80%
mortality at 250 ppm [2]: ≥ 80%
mortality at 50 ppm [3]: ≥ 80%
mortality at 250 ppm [3]: ≥ 80%
mortality at 50 ppm [4]: ≥ 70%
mortality at 250 ppm [4]: ≥ 70%

CC(C)(C)c1ccc(C(F)c2c(Br)cncc2-n2nccn2)cc1 (stereo not drawn) [Compound 108]
mortality at 50 ppm [1]: ≥ 80%
mortality at 250 ppm [1]: ≥ 80%
mortality at 50 ppm [4]: ≥ 70%
mortality at 250 ppm [4]: ≥ 70%
